From patent US8937067B2, “Activators of human pyruvate kinase” (The United States of America, as represented by the …, priority 2008, dated 2015)

How the values were obtained:
[1] = target: T1, hPK-M2 (Homo sapiens, UniProt P14618); assay: Luminescent pyruvate kinase-luciferase coupled assay (KinaseGlo); assay type: biochemical; details: for activation at 57 µM / hPK, M2 Max. Res.: KinaseGlo, % activation at 57 μM of compound; for activation at 57 µM: read-out: hPK, M2 Max. Res.
Outline: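 Activation assay with 0.1 mM ADP and 0.5 mM PEP in 50 mM imidazole pH 7.2, 50 mM KCl, 7 mM MgCl2, 0.01% tween 20, 0.05% BSA; 1 h at r.t. ATP produced was read by luciferase luminescence. AC50 values were normalized to DMSO (uninhibited enzyme) and no-enzyme controls.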

[2] = target: T1, hPK-M2; assay: Fluorescent pyruvate kinase-lactate dehydrogenase (LDH) coupled secondary assay; assay type: biochemical; details: for Emax: read-out: maximum response, LDH assay; for LDH hPK, M2 Max. Res.: % activation at 57 μM of compound
Description: Fluorescent Pyruvate Kinase-Lactate Dehydrogenase Coupled Secondary Assay.
Plates were immediately placed in ViewLux (Perkin Elmer) and NADH fluorescence was determined at 30 second exposure intervals for between 3 and 6 minutes. Data were normalized to the uninhibited and EC100 activation using known activators such as fructose-1,6-bis-phosphate. […] Data was collected on the Perkin Elmer Viewlux.

[3] = luminescent pyruvate kinase-luciferase coupled assay (KinaseGlo), tables, read-out: hPK, M2 AC50
[4] = tables, read-out: LDH hPK, M2 AC50

T1 sequence (P14618 whole entry): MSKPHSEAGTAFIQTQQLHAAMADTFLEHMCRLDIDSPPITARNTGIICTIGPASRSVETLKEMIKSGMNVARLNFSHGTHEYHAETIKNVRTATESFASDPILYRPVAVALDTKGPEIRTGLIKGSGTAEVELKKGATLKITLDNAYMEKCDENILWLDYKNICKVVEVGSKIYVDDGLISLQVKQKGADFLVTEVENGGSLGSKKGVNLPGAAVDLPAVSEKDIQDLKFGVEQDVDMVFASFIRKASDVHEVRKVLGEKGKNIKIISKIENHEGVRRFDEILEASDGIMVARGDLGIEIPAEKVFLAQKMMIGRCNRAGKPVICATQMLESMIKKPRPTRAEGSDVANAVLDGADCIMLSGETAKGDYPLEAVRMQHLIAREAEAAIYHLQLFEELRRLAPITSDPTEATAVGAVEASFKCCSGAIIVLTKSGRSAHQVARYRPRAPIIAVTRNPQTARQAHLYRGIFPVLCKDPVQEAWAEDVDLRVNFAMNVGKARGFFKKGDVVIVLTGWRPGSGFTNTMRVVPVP

SMILES | activation at 57 µM [1] [%] | AC50 [1, 3] [nM] | Emax ([1]; luciferase-coupled assay, relative to activation by FBP, read-out: maximum response) [%] | hPK, M2 Max. Res. [1] [%] | LDH hPK, M2 Max. Res. [2] [%] | AC50 [2, 4] [nM] | AC50 ([2]; read-out: AC50, LDH assay) [nM] | Emax [2] [%] | AC50 ([1]; luciferase-coupled assay, read-out: AC50) [nM] | maximum response ([1]; luciferase-coupled assay, relative to activation by FBP) [%] | maximum response, LDH assay [2] [%]
Cc1cc2c(s1)c1cnn(Cc3ccc(C(F)(F)F)cc3)c(=O)c1n2C [Compound 110, 2,4-Methyl-6-[(4-trifluoromethylphenyl)methyl]-4H-thieno[3,2-b]pyrrole[3,2-d]pyridazinone] | 56.1 ± 5.4 | 553 ± 130 | – | – | – | – | 2200 | 77 | – | – | –
COc1ccc(Cn2ncc3c4sc(C)cc4n(C)c3c2=O)cc1 [Compound 111, 2,4-Methyl-6-[(4-methoxyphenyl)methyl]-4H-thieno[3,2-b]pyrrole[3,2-d]pyridazinone] | 96.2 ± 2.5 | 37 ± 10 | – | – | – | – | 230 ± 40 | 258 | – | – | –
Cc1cc2c(s1)c1cnn(Cc3ccc(F)cc3F)c(=O)c1n2C [Compound 112, 2,4-Methyl-6-[(2,4-difluorophenyl)methyl]-4H-thieno[3,2-b]pyrrole[3,2-d]pyridazinone] | – | 44 ± 10 | – | – | – | – | 170 ± 30 | 217 | – | – | –
Cc1cc2c(s1)c1cnn(Cc3c(F)cccc3F)c(=O)c1n2C [Compound 113, 2,4-Methyl-6-[(2,6-difluorophenyl)methyl]-4H-thieno[3,2-b]pyrrole[3,2-d]pyridazinone] | 93.8 ± 5 | 49 ± 20 | – | – | – | – | 140 ± 10 | 240 | – | – | –
Cc1cc2c(s1)c1cnn(Cc3ccc(C(F)(F)F)cc3F)c(=O)c1n2C [Compound 120, 2,4-Methyl-6-[(2-fluoro-4-trifluoromethylphenyl)methyl]-4H-thieno[3,2-b]pyrrole[3,2-d]pyridazinone] | 59.3 ± 18 | – | < 80 | – | – | – | – | < 80 | – | – | –
COc1ccc(Cn2ncc3c4sc(C)cc4n(C)c3c2=O)cc1F [Compound 121, 2,4-Methyl-6-[(3-fluoro-4-methoxyphenyl)methyl]-4H-thieno[3,2-b]pyrrole[3,2-d]pyridazinone] | – | – | – | 68.2 ± 7.9 | – | – | 1000 | – | 225 ± 97 | 68.2 | 135±20
Nc1cccc(S(=O)(=O)N2CCCN(S(=O)(=O)c3ccc4c(c3)OCCO4)CC2)c1 [Compound 124] | 88.9 | 32.6 | – | – | 169.71 | – | – | – | – | – | –
Nc1ccc(S(=O)(=O)N2CCCN(S(=O)(=O)c3ccc4c(c3)OCCO4)CC2)cc1 [Compound 125] | 86.6 | 103 | – | – | 131.59 | 163 | – | – | – | – | –
CC(=O)Nc1cccc(S(=O)(=O)N2CCCN(S(=O)(=O)c3ccc4c(c3)OCCO4)CC2)c1 [Compound 131] | – | 819 | – | 91.11 | 123.67 | 819 | – | – | – | – | –
CC(=O)Nc1ccc(S(=O)(=O)N2CCCN(S(=O)(=O)c3ccc4c(c3)OCCO4)CC2)cc1 [Compound 132] | 81.1 | 4110 | – | – | 123.97 | 2590 | – | – | – | – | –
Nc1cccc(S(=O)(=O)N2CCN(S(=O)(=O)c3ccc4c(c3)OCCO4)CC2)c1 [Compound 135] | – | 41.1 | – | 82.08 | 98.13 | 146 | – | – | – | – | –
Cc1ccc(N[S+](=O)([O-])c2ccc3c(c2)CCC(=O)N3)cc1C [Compound 150] | 84 | 163 | – | – | 153.98 | 146 | – | – | – | – | –
Nc1ccc(S(=O)(=O)N2CCN(S(=O)(=O)c3ccc4c(c3)OCCO4)CC2)cc1 [Compound 151] | – | 410 | – | 91.84 | 174.46 | 366 | – | – | – | – | –

The next lines start with results.

activation at 57 µM [1] [%] | AC50 [1, 3] [nM] | Emax ([1]; luciferase-coupled assay, relative to activation by FBP, read-out: maximum response) [%] | hPK, M2 Max. Res. [1] [%] | LDH hPK, M2 Max. Res. [2] [%] | AC50 [2, 4] [nM] | SMILES | AC50 ([2]; read-out: AC50, LDH assay) [nM] | Emax [2] [%] | AC50 ([1]; luciferase-coupled assay, read-out: AC50) [nM] | maximum response ([1]; luciferase-coupled assay, relative to activation by FBP) [%] | maximum response, LDH assay [2] [%]
82.6 | 651 | – | – | 170.98 | 410 | Nc1ccc(S(=O)(=O)N2CCN(S(=O)(=O)c3c(F)cccc3F)CC2)cc1 [Compound 123] | – | – | – | – | –
83.8 | 2910 | – | – | 114.61 | 2910 | COc1cc(F)c(S(=O)(=O)N2CCCN(S(=O)(=O)c3cccc(NC(C)=O)c3)CC2)c(F)c1 [Compound 126] | – | – | – | – | –
96.7 | 36.6 | – | – | 159.85 | 58 | COc1cc(F)c(S(=O)(=O)N2CCCN(S(=O)(=O)c3ccc4c(c3)OCCO4)CC2)c(F)c1 [Compound 128] | – | – | – | – | –
– | 1630 | – | 60.00 | 94.88 | 1030 | COc1cc(F)c(S(=O)(=O)N2CCN(S(=O)(=O)c3cccc(NC(C)=O)c3)CC2)c(F)c1 [Compound 133] | – | – | – | – | –
– | 23.1 | – | 87.00 | 141.67 | 73 | COc1cc(F)c(S(=O)(=O)N2CCN(S(=O)(=O)c3cccc(N)c3)CC2)c(F)c1 [Compound 134] | – | – | – | – | –
– | 91.9 | – | 81.51 | 154.42 | 206 | Nc1cccc(S(=O)(=O)N2CCN(S(=O)(=O)c3c(F)cccc3F)CC2)c1 [Compound 137] | – | – | – | – | –
– | 130 | – | 92.46 | 166.00 | 183 | COc1cc(F)c(S(=O)(=O)N2CCN(S(=O)(=O)c3ccc(N)cc3)CC2)c(F)c1 [Compound 139] | – | – | – | – | –
– | 183 | – | 89.61 | 148.41 | 183 | O=S(=O)(c1cccc(O)c1)N1CCN(S(=O)(=O)c2c(F)cccc2F)CC1 [Compound 140] | – | – | – | – | –
– | 206 | – | 93.20 | 157.96 | 146 | COc1cc(F)c(S(=O)(=O)N2CCCN(S(=O)(=O)c3cccc(N)c3)CC2)c(F)c1 [Compound 141] | – | – | – | – | –
– | 1300 | – | 89.36 | 150.25 | 1300 | COc1cc(F)c(S(=O)(=O)N2CCCN(S(=O)(=O)c3ccc(N)cc3)CC2)c(F)c1 [Compound 143] | – | – | – | – | –
– | 36.6 | – | 95.08 | 125.28 | 51.7 | COc1cc(F)c(S(=O)(=O)N2CCN(S(=O)(=O)c3cccs3)CC2)c(F)c1 [Compound 144] | – | – | – | – | –
– | 183 | – | 82.49 | 106.13 | 116 | COc1cc(F)c(S(=O)(=O)N2CCN(S(=O)(=O)c3ccco3)CC2)c(F)c1 [Compound 145] | – | – | – | – | –
